# Test results as given in patent US20160221974A1, “SODIUM CHANNEL MODULATORS FOR THE TREATMENT OF PAIN AND DIABETES” (CHROMOCELL CORPORATION, priority 2013, published 2016).
# Legend:
# hNaV1.7 = target: T1, hNaV1.7 (Homo sapiens, UniProt Q15858); experiment: FDSS Membrane Potential In-Vitro Assay; assay type: cell-based; conditions: stimulation with veratridine and scorpion venom, read-out: NaV1.7 IC50
# T1 construct: expressed in transfected cells
# NaV1.7 = target: T2, NaV1.7 (Homo sapiens, UniProt Q15858); experiment: Patchliner Electrophysiological In-Vitro Assay (NaV1.7); assay type: cell-based; conditions: Patchliner patch clamp, HEK293, holding at V1/2
# T2 construct: expressed in transfected cells
# Procedure: In vitro assays were performed in recombinant cell line that stably express a heterotrimeric protein of interest from an introduced nucleic acid encoding the alpha subunit (hNav1.7, SCN9A), the beta subunit (SCNB1) and the beta subunit (SCNB2). The cell line was engineered using Human Embryonic Kidney 293 cells as host background. Additional cell lines stably expressing recombinant Nav1.7 or Nav1.5 alpha subunit alone or in combination with various beta subunits can also be used in in-vitro assays.
# The recording of sodium current from stable HEK293 cell lines expressing NaV1.7 or NaV1.5 was done on a Patchliner® instrument, Nanion Technologies. The Patchliner® is a fully automated bench-top patch clamp platform and can record simultaneously from up to eight single cells with GΩ seals.
# For patch-clamp experiments, cells were grown under standard culturing conditions in Dulbecco's Modified Eagles medium supplemented with 10% fetal bovine serum, glutamine and HEPES. Cells were harvested and kept in suspension for up to 4 hours with no significant change in quality or ability to patch. Whole cell patch clamp recordings were conducted according to Nanion's standard procedure for the Patchliner®. Experiments were conducted at room temperature.
# Voltage protocols were designed to establish: 1) peak current amplitude (Imax), 2) test potential (Vmax) and 3) half-inactivation potential (V1/2) for each of the eight individual cells. To determine V1/2, a standard steady-state inactivation protocol was executed using a series of fifteen 500 ms depolarizing pre-pulses in 10 mV increments (starting at −130 mV) and immediately followed by a 10 ms test pulse to Vmax. To estimate test compound affinity to the inactivated state of sodium channel (Ki), the holding potential for each cell was set automatically to the V1/2 calculated from a steady-state inactivation data. The current was activated with the following voltage protocol: holding at V1/2 for 2-5 seconds, return to the −120 mV for 5-10 ms to relieve fast inactivation, stepping to test potential (Vmax) for 10-20 ms. This voltage protocol was repeated every 10 seconds to establish the baseline with 2-3 buffer additions followed by the test compound addition. The dose-dependent inhibition was analyzed using Nanion's Data Analysis Package.
# T2 sequence (Q15858 whole entry): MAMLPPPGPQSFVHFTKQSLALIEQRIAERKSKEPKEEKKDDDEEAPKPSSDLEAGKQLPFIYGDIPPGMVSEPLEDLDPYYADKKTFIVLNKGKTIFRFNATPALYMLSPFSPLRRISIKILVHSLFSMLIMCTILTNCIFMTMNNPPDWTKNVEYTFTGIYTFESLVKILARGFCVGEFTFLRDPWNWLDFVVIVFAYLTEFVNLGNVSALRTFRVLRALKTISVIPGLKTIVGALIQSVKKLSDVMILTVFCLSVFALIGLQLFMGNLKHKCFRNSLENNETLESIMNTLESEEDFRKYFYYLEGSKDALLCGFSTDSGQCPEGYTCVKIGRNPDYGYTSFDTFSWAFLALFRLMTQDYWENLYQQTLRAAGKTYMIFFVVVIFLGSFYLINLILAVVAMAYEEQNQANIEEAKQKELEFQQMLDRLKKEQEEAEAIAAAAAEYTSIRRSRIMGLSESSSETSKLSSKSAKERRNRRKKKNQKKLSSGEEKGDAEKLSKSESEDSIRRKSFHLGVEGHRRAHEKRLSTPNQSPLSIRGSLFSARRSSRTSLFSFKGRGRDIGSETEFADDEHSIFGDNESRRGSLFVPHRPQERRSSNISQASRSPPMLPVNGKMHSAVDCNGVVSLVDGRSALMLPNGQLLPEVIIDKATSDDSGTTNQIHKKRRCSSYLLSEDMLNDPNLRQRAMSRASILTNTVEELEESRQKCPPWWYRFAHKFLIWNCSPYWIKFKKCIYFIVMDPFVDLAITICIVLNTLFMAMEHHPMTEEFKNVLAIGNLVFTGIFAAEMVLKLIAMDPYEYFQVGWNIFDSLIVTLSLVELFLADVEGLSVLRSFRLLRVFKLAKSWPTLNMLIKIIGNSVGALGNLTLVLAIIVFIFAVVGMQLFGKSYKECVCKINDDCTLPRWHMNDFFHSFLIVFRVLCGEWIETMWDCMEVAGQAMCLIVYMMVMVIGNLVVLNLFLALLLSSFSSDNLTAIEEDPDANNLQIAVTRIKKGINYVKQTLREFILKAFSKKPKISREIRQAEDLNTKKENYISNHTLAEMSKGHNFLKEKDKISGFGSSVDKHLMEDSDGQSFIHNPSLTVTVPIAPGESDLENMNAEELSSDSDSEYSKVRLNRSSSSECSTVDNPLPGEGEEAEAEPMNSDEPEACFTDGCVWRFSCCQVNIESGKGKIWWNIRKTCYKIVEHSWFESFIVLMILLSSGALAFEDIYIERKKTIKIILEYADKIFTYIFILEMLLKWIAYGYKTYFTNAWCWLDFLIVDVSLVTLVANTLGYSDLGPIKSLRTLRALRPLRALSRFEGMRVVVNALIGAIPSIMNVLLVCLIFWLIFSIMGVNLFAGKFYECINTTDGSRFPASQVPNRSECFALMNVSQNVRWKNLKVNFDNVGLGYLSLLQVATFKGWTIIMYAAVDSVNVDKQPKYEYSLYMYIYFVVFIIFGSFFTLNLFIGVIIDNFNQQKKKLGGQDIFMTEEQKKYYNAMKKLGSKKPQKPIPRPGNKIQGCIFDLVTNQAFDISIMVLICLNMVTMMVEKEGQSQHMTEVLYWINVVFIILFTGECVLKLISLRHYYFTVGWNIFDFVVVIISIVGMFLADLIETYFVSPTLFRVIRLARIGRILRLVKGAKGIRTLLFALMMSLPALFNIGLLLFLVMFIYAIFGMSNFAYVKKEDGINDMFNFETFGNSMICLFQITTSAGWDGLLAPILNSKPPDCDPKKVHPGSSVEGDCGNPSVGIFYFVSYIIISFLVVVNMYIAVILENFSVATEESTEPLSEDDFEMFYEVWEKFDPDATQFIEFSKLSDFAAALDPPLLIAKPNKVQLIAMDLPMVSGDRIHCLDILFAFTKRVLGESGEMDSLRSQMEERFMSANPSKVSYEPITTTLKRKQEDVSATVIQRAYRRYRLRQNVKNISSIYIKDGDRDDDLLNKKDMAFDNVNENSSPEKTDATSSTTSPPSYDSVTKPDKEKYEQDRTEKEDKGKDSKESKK
# T2 sequence (Q07699 19-218 partner): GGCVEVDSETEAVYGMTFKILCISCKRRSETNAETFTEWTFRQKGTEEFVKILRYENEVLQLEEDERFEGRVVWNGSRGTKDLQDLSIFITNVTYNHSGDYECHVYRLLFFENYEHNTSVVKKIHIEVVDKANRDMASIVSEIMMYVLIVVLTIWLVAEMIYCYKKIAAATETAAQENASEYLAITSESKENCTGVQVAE
# T2 sequence (O60939 30-215 partner): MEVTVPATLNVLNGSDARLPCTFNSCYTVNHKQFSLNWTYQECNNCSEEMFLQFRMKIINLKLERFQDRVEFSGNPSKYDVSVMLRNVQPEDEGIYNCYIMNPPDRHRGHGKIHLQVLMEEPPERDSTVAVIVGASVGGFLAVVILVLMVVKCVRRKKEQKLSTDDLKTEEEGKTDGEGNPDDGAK
# T1 sequence (Q15858 whole entry): as the sequence (Q15858 whole entry) above
# T1 sequence (Q07699 19-218 partner): as the sequence (Q07699 19-218 partner) above
# T1 sequence (O60939 30-215 partner): as the sequence (O60939 30-215 partner) above
IC50 (NaV1.7) [µM],SMILES,IC50 (hNaV1.7) [µM]
< 0.1,"COC(=O)CNCCCc1cc(Cl)ccc1Oc1cc(F)c(S(=O)(=O)Nc2cscn2)cc1Cl [Compound 24, methyl 2-((3-(5-chloro-2-(2-chloro-5-fluoro-4-(N-(thiazol-4-yl)sulfamoyl)phenoxy)phenyl)propyl)amino)acetate]",–
0.1 to 1,"O=S(=O)(Nc1cscn1)c1cc(Cl)c(Oc2ccc(Cl)cc2-c2cnn3c2NCCC3)cc1F [Compound 33, 5-chloro-4-(4-chloro-2-(4,5,6,7-tetrahydropyrazolo[1,5-a]pyrimidin-3-yl)phenoxy)-2-fluoro-N-(thiazol-4-yl)benzenesulfonamide]",–
< 0.1,"CCCCCOC(=O)N(CCCc1cc(Cl)ccc1Oc1cc(F)c(S(=O)(=O)Nc2nccs2)cc1Cl)CC(=O)O [Compound 53, 2-((3-(5-chloro-2-(2-chloro-5-fluoro-4-(N-(thiazol-2-yl)sulfamoyl)phenoxy)phenyl)propyl)((pentyloxy)carbonyl)amino)acetic acid]",–
< 0.1,"NC(=O)CNCCCc1ccccc1Oc1cc(F)c(S(=O)(=O)Nc2cscn2)cc1Cl [Compound 60, 2-((3-(2-(2-chloro-5-fluoro-4-(N-(thiazol-4-yl)sulfamoyl)phenoxy)phenyl)propyl)amino)acetamide]",–
< 0.1,"C=CCN(CCCc1cc(Cl)ccc1Oc1cc(F)c(S(=O)(=O)Nc2nccs2)cc1Cl)CC(=O)O [Compound 62, 2-(allyl(3-(5-chloro-2-(2-chloro-5-fluoro-4-(N-(thiazol-2-yl)sulfamoyl)phenoxy)phenyl)propyl)amino)acetic acid]",–
< 0.1,"NC(=O)CNCCCc1cc(Cl)ccc1Oc1cc(F)c(S(=O)(=O)Nc2nccs2)cc1Cl [Compound 63, 2-((3-(5-chloro-2-(2-chloro-5-fluoro-4-(N-(thiazol-2-yl)sulfamoyl)phenoxy)phenyl)propyl)amino)acetamide]",–
< 0.1,"CC#CCN(CCCc1cc(Cl)ccc1Oc1cc(F)c(S(=O)(=O)Nc2nccs2)cc1Cl)CC(=O)O [Compound 64, 2-(but-2-yn-1-yl(3-(5-chloro-2-(2-chloro-5-fluoro-4-(N-(thiazol-2-yl)sulfamoyl)phenoxy)phenyl)propyl)amino)acetic acid]",–
< 0.1,"CCCN(CCCc1cc(Cl)ccc1Oc1cc(F)c(S(=O)(=O)Nc2nccs2)cc1Cl)CC(=O)O [Compound 65, 2-((3-(5-chloro-2-(2-chloro-5-fluoro-4-(N-(thiazol-2-yl)sulfamoyl)phenoxy)phenyl)propyl)(propyl)amino)acetic acid]",–
< 0.1,"C#CCN(CCCc1cc(Cl)ccc1Oc1cc(F)c(S(=O)(=O)Nc2nccs2)cc1Cl)CCC(=O)O [Compound 66, 3-((3-(5-chloro-2-(2-chloro-5-fluoro-4-(N-(thiazol-2-yl)sulfamoyl)phenoxy)phenyl)propyl)(prop-2-yn-1-yl)amino)propanoic acid]",–
< 0.1,"C#CCN(CCCc1cc(Cl)ccc1Oc1cc(F)c(S(=O)(=O)Nc2nccs2)cc1F)CC(=O)O [Compound 67, 2-((3-(5-chloro-2-(2,5-difluoro-4-(N-(thiazol-2-yl)sulfamoyl)phenoxy)phenyl)propyl)(prop-2-yn-1-yl)amino)acetic acid]",–
< 0.1,"NC(=O)CNCCCc1cc(Cl)ccc1Oc1cc(F)c(S(=O)(=O)Nc2cscn2)cc1F [Compound 69, 2-((3-(5-chloro-2-(2,5-difluoro-4-(N-(thiazol-4-yl)sulfamoyl)phenoxy)phenyl)propyl)amino)acetamide]",–

# Continued, compound first:
SMILES,IC50 (NaV1.7) [µM],IC50 (hNaV1.7) [µM]
"O=C(O)CNC(=O)c1cccc(-c2cc(Cl)ccc2Oc2cc(F)c(S(=O)(=O)Nc3ncns3)cc2Cl)n1 [Compound 7, 2-(6-(2-(4-(N-(1,2,4-thiadiazol-5-yl)sulfamoyl)-2-chloro-5-fluorophenoxy)-5-chlorophenyl)picolinamido)acetic acid]",–,0.13 to 1
"N#Cc1cc(S(=O)(=O)Nc2cscn2)ccc1Oc1ccc(Cl)cc1CCCNCCC(=O)O [Compound 23, 3-((3-(5-chloro-2-(2-cyano-4-(N-(thiazol-4-yl)sulfamoyl)phenoxy)phenyl)propyl)amino)propanoic acid]",0.1 to 1,1 to 20
"O=C(O)CCNCCCc1cc(F)ccc1Oc1cc(F)c(S(=O)(=O)Nc2cscn2)cc1Cl [Compound 25, 3-((3-(2-(2-chloro-5-fluoro-4-(N-(thiazol-4-yl)sulfamoyl)phenoxy)-5-fluorophenyl)propyl)amino)propanoic acid]",0.1 to 1,–
"O=C(O)CCNCCCc1cc(Cl)ccc1Oc1cc(F)c(S(=O)(=O)Nc2nccs2)cc1Cl [Compound 29, 3-((3-(5-chloro-2-(2-chloro-5-fluoro-4-(N-(thiazol-2-yl)sulfamoyl)phenoxy)phenyl)propyl)amino)propanoic acid]",< 0.1,–
"CCOC(=O)CNCCCc1cc(Cl)ccc1Oc1cc(F)c(S(=O)(=O)Nc2nccs2)cc1Cl [Compound 35, ethyl 2-((3-(5-chloro-2-(2-chloro-5-fluoro-4-(N-(thiazol-2-yl)sulfamoyl)phenoxy)phenyl)propyl)amino)acetate]",–,0.1 to 0.5
"O=S(=O)(Nc1nccs1)c1cc(Cl)c(Oc2ccc(Cl)cc2CCCNc2cn[nH]c2)cc1F [Compound 42, 4-(2-(3-((1H-pyrazol-4-yl)amino)propyl)-4-chlorophenoxy)-5-chloro-2-fluoro-N-(thiazol-2-yl)benzenesulfonamide]",–,1 to 20
"O=C(O)CCNCCCc1cc(Cl)ccc1Oc1cc(F)c(S(=O)(=O)Nc2nccs2)cc1F [Compound 43, 3-((3-(5-chloro-2-(2,5-difluoro-4-(N-(thiazol-2-yl)sulfamoyl)phenoxy)phenyl)propyl)amino)propanoic acid]",–,0.1 to 0.5
"O=S(=O)(Nc1cscn1)c1cc(Cl)c(Oc2ccc(Cl)cc2CCCNc2cc[nH]n2)cc1F [Compound 45, 4-(2-(3-((1H-pyrazol-3-yl)amino)propyl)-4-chlorophenoxy)-5-chloro-2-fluoro-N-(thiazol-4-yl)benzenesulfonamide]",–,1 to 20
"CNC(=O)CNCCCc1cc(Cl)ccc1Oc1cc(F)c(S(=O)(=O)Nc2cscn2)cc1Cl [Compound 46, 2-((3-(5-chloro-2-(2-chloro-5-fluoro-4-(N-(thiazol-4-yl)sulfamoyl)phenoxy)phenyl)propyl)amino)-N-methylacetamide]",–,0.1 to 0.5
"O=S(=O)(Nc1cscn1)c1cc(Cl)c(Oc2ccc(Cl)cc2CCCN2CCc3[nH]ncc3C2)cc1F [Compound 48, 5-chloro-4-(4-chloro-2-(3-(6,7-dihydro-1H-pyrazolo[4,3-c]pyridin-5(4H)-yl)propyl)phenoxy)-2-fluoro-N-(thiazol-4-yl)benzenesulfonamide]",–,0.5 to 1
"CC(C)CCOC(=O)CNCCCc1cc(Cl)ccc1Oc1cc(F)c(S(=O)(=O)Nc2nccs2)cc1Cl [Compound 50, isopentyl 2-((3-(5-chloro-2-(2-chloro-5-fluoro-4-(N-(thiazol-2-yl)sulfamoyl)phenoxy)phenyl)propyl)amino)acetate]",–,0.5 to 1
"CC(C)OC(=O)CNCCCc1cc(Cl)ccc1Oc1cc(F)c(S(=O)(=O)Nc2nccs2)cc1Cl [Compound 51, isopropyl 2-((3-(5-chloro-2-(2-chloro-5-fluoro-4-(N-(thiazol-2-yl)sulfamoyl)phenoxy)phenyl)propyl)amino)acetate]",–,0.5 to 1
"O=S(=O)(Nc1cscn1)c1cc(Cl)c(Oc2ccc(Cl)cc2CCCN2CCn3ccnc3C2)cc1F [Compound 55, 5-chloro-4-(4-chloro-2-(3-(5,6-dihydroimidazo[1,2-a]pyrazin-7(8H)-yl)propyl)phenoxy)-2-fluoro-N-(thiazol-4-yl)benzenesulfonamide]",–,0.1 to 0.5
"O=S(=O)(Nc1nccs1)c1cc(Cl)c(Oc2ccc(Cl)cc2-c2cnn3c2NCCC3)cc1F [Compound 57, 5-chloro-4-(4-chloro-2-(4,5,6,7-tetrahydropyrazolo[1,5-a]pyrimidin-3-yl)phenoxy)-2-fluoro-N-(thiazol-2-yl)benzenesulfonamide]",–,0.1 to 0.5
"CS(=O)(=O)CCNCCCc1cc(Cl)ccc1Oc1cc(F)c(S(=O)(=O)Nc2nccs2)cc1Cl [Compound 59, 5-chloro-4-(4-chloro-2-(3-((2-(methylsulfonyl)ethyl)amino)propyl)phenoxy)-2-fluoro-N-(thiazol-2-yl)benzenesulfonamide]",–,0.1 to 0.5
"C#CCN(CCCc1cc(Cl)ccc1Oc1cc(F)c(S(=O)(=O)Nc2cscn2)cc1Cl)CC(=O)O [Compound 61, 2-((3-(5-chloro-2-(2-chloro-5-fluoro-4-(N-(thiazol-4-yl)sulfamoyl)phenoxy)phenyl)propyl)(prop-2-yn-1-yl)amino)acetic acid]",< 0.1,–
"CCOC(=O)CN(C)CCCc1cc(Cl)ccc1Oc1cc(F)c(S(=O)(=O)Nc2nccs2)cc1Cl [Compound 68, ethyl 2-((3-(5-chloro-2-(2-chloro-5-fluoro-4-(N-(thiazol-2-yl)sulfamoyl)phenoxy)phenyl)propyl)(methyl)amino)acetate]",–,0.5 to 1
